Test results: patent publication US12138256B2, “Treatment of cardiopulmonary disorders” (Bayer Aktiengesellschaft, priority 2021, dated 2024)
“And” between values parts separate entries of the source, which are not always exact repeats. Identical values can stand only once.

Experiments:
[1] = Caco-2 permeability test (C-5.1); format: in vitro ADME, human; settings: human, Caco-2 (2 μM)
Protocol: The in vitro permeation of a test compound across a Caco-2 cell monolayer is a well-established assay system to predict the permeability from the gastro-intestinal tract (1). The permeability of the compounds of the present invention in such Caco-2 cells was determined as described below:
Human caco-2 cells were seeded on 24-well insert plates and were allowed to grow for 14-16 days. For permeability studies, the test compounds were dissolved in DMSO and diluted to the final test concentration of 2 μM with transport buffer [Hanks' Buffered Salt Solution, Gibco/Invitrogen, further supplemented with glucose and HEPES]. For determination of the apical to basolateral permeability (PappA-B), the test compound solution was added to the apical side of the cell monolayer and transport buffer to the basolateral side of the monolayer; for determination of the basolateral to apical permeability (PappB-A), the test compound solution was added to the basolateral side of the cell monolayer and transport buffer to the apical side of the monolayer. Samples were taken from the donor compartment at the beginning of the experiment to confirm mass balance. After an incubation of 2 h at 37° C., samples were taken from both compartments. Samples were analyzed by LC-MS/MS, and the apparent permeability coefficients were calculated. Lucifer Yellow permeability was assayed for each cell monolayer to ensure cell monolayer integrity, and the permeability of Atenolol (low permeability marker) and Sulfasalazine (marker for active excretion) was determined for each batch as quality control.

[2] = Protein binding via Transil assay, plasma of all species investigated (C-5.2); format: in vitro ADME; settings: Wistar (rat), Beagle (dog), plasma (Transil beads), read-out: free fractions
Excerpt: (§1) The distribution of a test substance between Transil® (phosphatidylcholine lipid bilayers immobilized on silica beads) and plasma is a characteristic feature of any pharmaceutical compound and is dependent on its extent of binding to plasma proteins. By comparing the distribution between Transil® and buffer with the distribution between Transil® and plasma of any species of interest, the unbound fraction in the plasma of the respective animal species can be calculated in vitro. The respective plasma and buffer concentrations were determined via a radioactivity analysis. A detailed description of the method and its validation was published by Schuhmacher et al. (2).

[3] = Protein binding via Transil assay, human plasma; format: in vitro ADME; settings: Human (male) plasma, Transil assay; read-out: Fraction unbound
Excerpt: as §1

[4] = Protein binding via Transil assay, rat plasma; format: in vitro ADME; settings: Rat Wistar plasma, Transil assay
Excerpt: as §1

[5] = system: anesthetized PAH minipigs; assay: PAH minipig model: intratracheal application of dry powder formulations and different hydrates (PennCentury insufflator); format: in vivo, Göttingen minipig; settings: for BP (mean) / PAP(mean) / BP % changes vs. prevalues / PAP % changes vs. prevalues: 375 μg/kg i.t.; for BP (mean) / PAP(mean): absolute values; for BP % changes vs. prevalues / PAP % changes vs. prevalues: each animal
Excerpt: After characterization of the effects of comparative example 11 after nebulization of compound solutions, in a further step the effects of crystalline forms of comparative example 11, e.g. sesquihydrate, e.g. example 6e on PAP and BP after inhaled application of different dry powder lactose formulations (table C2.1.8) were studied in anesthetized PAH minipigs.
As reference pure Lactose vehicle was applied in the beginning of each experiment.

[6] = Storage stability of pseudopolymorphic forms (XRPD after storage); format: physicochemical; settings: 25° C./60% and 40° C./75% relative humidity

With `O=C(O)CCCCN(CCc1ccccc1OCc1ccc(CCc2ccccc2)cc1)Cc1ccc(C(=O)O)cc1` [comparative example 1, 4-[((4Carboxybutyl)-{2-[(4-phenethylbenzyl)oxy]phenethyl}amino)methyl]benzoic acid] the efflux ratio at 2 h, 2 μM [1] was 20 ± 3.5, the Papp A→B at 2 h, 2 μM ([1]; concentration per compound 2.0 or 2.4 μM, read-out: Papp A-B (mean +/− SD)) was 3.1 ± 0.39 ×10⁻⁶ cm/s and the Papp B→A at 2 h, 2 μM ([1]; concentration per compound 2.0 or 2.4 μM, read-out: Papp B-A (mean +/− SD)) was 63.1 ± 7.1 ×10⁻⁶ cm/s. The fraction unbound [2] was less than 0.01, the fraction unbound [3] was 0.00392 and the fraction unbound [4] was 0.00351.

For `O=C(O)c1ccc(CCN(CCc2ccccc2OCc2ccc(-c3ccc(C(F)(F)F)cc3)cc2Cl)[C@H]2CCCc3nc(C(=O)O)ccc32)cc1` [example 2, (5S)-{[2-(4-Carboxyphenyl)ethyl][2-(2-{[3-chloro-4′-(trifluoromethyl)biphenyl-4-yl]methoxy}phenyl)-ethyl]amino}-5,6,7,8-tetrahydroquinoline-2-carboxylic acid], the “efficacy with regard to PAP reduction as well as systemic BP reduction” value ([5]; 1.5 mg/4 kg (=375 μg/kg) intratracheally, micronized) was “comparable efficacy”, the “BP (mean)” value ([5]; time 0) was 109 mmHg and 127 mmHg and 136 mmHg and the “PAP(mean)” value ([5]; time 0) was 35.8 mmHg and 38.7 mmHg and 39.7 mmHg. For the same compound, the “BP (mean)” value ([5]; time 10) was 110 mmHg and 126 mmHg and 135 mmHg, the “PAP(mean)” value ([5]; time 10) was 35.8 mmHg and 38.7 mmHg and 37.1 mmHg and the “BP (mean)” value ([5]; time 20) was 117 mmHg and 128 mmHg and 139 mmHg. For the same compound, the “PAP(mean)” value ([5]; time 20) was 38.9 mmHg and 38.2 mmHg and 40.2 mmHg, the “BP (mean)” value ([5]; time 30) was 121 mmHg and 128 mmHg and 139 mmHg and the “PAP(mean)” value ([5]; time 30) was 39.8 mmHg and 38.6 mmHg and 40.0 mmHg. For the same compound, the “BP (mean)” value ([5]; time 40) was 123 mmHg and 127 mmHg and 137 mmHg, the “PAP(mean)” value ([5]; time 40) was 40.4 mmHg and 39.0 mmHg and 40.7 mmHg and the “BP (mean)” value ([5]; time 50) was 120 mmHg and 127 mmHg and 135 mmHg. For the same compound, the “PAP(mean)” value ([5]; time 50) was 39.7 mmHg and 39.2 mmHg and 40.2 mmHg, the “BP % changes vs. prevalues” ([5]; time 50) was 99.1% and 100.1% and 100.0% and the “PAP % changes vs. prevalues” ([5]; time 50) was 99.1% and 99.2% and 98.5%. The “BP (mean)” value ([5]; time 60) was 121 mmHg and 127 mmHg and 136 mmHg, the “PAP(mean)” value ([5]; time 60) was 39.9 mmHg and 39.2 mmHg and 40.8 mmHg and the “BP % changes vs. prevalues” ([5]; time 60) was 99.9% and 100.1% and 100.7%. The “PAP % changes vs. prevalues” ([5]; time 60) was 99.7% and 99.3% and 99.8%, the “BP (mean)” value ([5]; time 70) was 124 mmHg and 126 mmHg and 137 mmHg and the “PAP(mean)” value ([5]; time 70) was 39.1 mmHg and 36.0 mmHg and 37.2 mmHg. For the same compound, the “BP % changes vs. prevalues” ([5]; time 70) was 102.4% and 99.3% and 101.4%, the “PAP % changes vs. prevalues” ([5]; time 70) was 97.7% and 91.1% and 91.0% and the “BP (mean)” value ([5]; time 80) was 123 mmHg and 124 mmHg and 135 mmHg. For the same compound, the “PAP(mean)” value ([5]; time 80) was 39.1 mmHg and 36.1 mmHg and 35.9 mmHg, the “BP % changes vs. prevalues” ([5]; time 80) was 101.6% and 97.7% and 100.0% and the “PAP % changes vs. prevalues” ([5]; time 80) was 97.7% and 91.3% and 88.0%. The “BP (mean)” value ([5]; time 90) was 122 mmHg and 125 mmHg and 134 mmHg, the “PAP(mean)” value ([5]; time 90) was 37.9 mmHg and 35.2 mmHg and 34.5 mmHg and the “BP % changes vs. prevalues” ([5]; time 90) was 100.7% and 98.5% and 99.2%. The “PAP % changes vs. prevalues” ([5]; time 90) was 94.7% and 89.1% and 84.5%, the “BP (mean)” value ([5]; time 100) was 122 mmHg and 124 mmHg and 132 mmHg and the “PAP(mean)” value ([5]; time 100) was 36.8 mmHg and 33.2 mmHg and 32.7 mmHg. The “BP % changes vs. prevalues” ([5]; time 100) was 100.7% and 97.7% (2×), the “PAP % changes vs. prevalues” ([5]; time 100) was 91.8% and 84.0% and 80.0% and the “BP (mean)” value ([5]; time 110) was 122 mmHg and 125 mmHg and 133 mmHg. The “PAP(mean)” value ([5]; time 110) was 35.5 mmHg and 31.9 mmHg and 31.2 mmHg, the “BP % changes vs. prevalues” ([5]; time 110) was 100.7% and 98.5% (2×) and the “PAP % changes vs. prevalues” ([5]; time 110) was 88.8% and 80.9% and 76.3%. For the same compound, the “BP (mean)” value ([5]; time 120) was 121 mmHg and 125 mmHg and 132 mmHg, the “PAP(mean)” value ([5]; time 120) was 34.8 mmHg and 30.2 mmHg and 29.8 mmHg and the “BP % changes vs. prevalues” ([5]; time 120) was 99.9% and 98.5% and 97.7%. For the same compound, the “PAP % changes vs. prevalues” ([5]; time 120) was 87.0% and 76.6% and 73.0%, the “BP (mean)” value ([5]; time 130) was 120 mmHg and 124 mmHg and 131 mmHg and the “PAP(mean)” value ([5]; time 130) was 34.2 mmHg and 29.7 mmHg and 29.3 mmHg. For the same compound, the “BP % changes vs. prevalues” ([5]; time 130) was 99.1% and 97.7% and 97.0%, the “PAP % changes vs. prevalues” ([5]; time 130) was 85.5% and 75.2% and 71.7% and the “BP (mean)” value ([5]; time 140) was 119 mmHg and 125 mmHg and 131 mmHg. The “PAP(mean)” value ([5]; time 140) was 34.3 mmHg and 29.3 mmHg and 28.6 mmHg, the “BP % changes vs. prevalues” ([5]; time 140) was 98.3% and 98.5% and 97.0% and the “PAP % changes vs. prevalues” ([5]; time 140) was 85.6% and 74.3% and 70.0%. For the same compound, the “BP (mean)” value ([5]; time 150) was 117 mmHg and 124 mmHg and 130 mmHg, the “PAP(mean)” value ([5]; time 150) was 33.7 mmHg and 28.4 mmHg and the “BP % changes vs. prevalues” ([5]; time 150) was 96.6% and 97.7% and 96.3%. The “PAP % changes vs. prevalues” ([5]; time 150) was 84.1% and 71.9% and 69.4%, the “BP (mean)” value ([5]; time 160) was 117 mmHg and the “BP % changes vs. prevalues” ([5]; time 160) was 96.6% and 95.3% and 96.3%. For the same compound, the “PAP % changes vs. prevalues” ([5]; time 160) was 84.1% and 70.4% and 68.1%, the “BP % changes vs. prevalues” ([5]; time 170) was 95.8% and 94.5% and 95.5% and the “PAP % changes vs. prevalues” ([5]; time 170) was 83.8% and 69.8% and 68.5%. The “BP % changes vs. prevalues” ([5]; time 180) was 94.1% and 92.2% and 97.7%, the “PAP % changes vs. prevalues” ([5]; time 180) was 83.8% and 68.7% and 68.9% and the “BP % changes vs. prevalues” ([5]; time 190) was 92.5% and 91.4% and 98.5%. The “PAP % changes vs. prevalues” ([5]; time 190) was 83.9% and 67.7% and 69.3%, the “BP % changes vs. prevalues” ([5]; time 200) was 90.0% and 90.6% and 97.0% and the “PAP % changes vs. prevalues” ([5]; time 200) was 83.7% and 67.9% and 68.5%. The “BP % changes vs. prevalues” ([5]; time 210) was 90.8%, the “PAP % changes vs. prevalues” ([5]; time 210) was 83.4% and 66.5% and 67.7% and the “BP (mean)” value ([5]; time −10) was 116 mmHg and 126 mmHg and 139 mmHg. For the same compound, the “PAP(mean)” value ([5]; time −10) was 37.9 mmHg and 37.8 mmHg and 39.4 mmHg and the “storage stability of the form” value ([6]; listed as monohydrate II) was “underwent conversion to monohydrate I”.

For `O=C(O)c1ccc(CCN(CCc2ccccc2OCc2ccc(-c3ccc(C(F)(F)F)cc3)cc2Cl)[C@H]2CCCc3nc(C(=O)O)ccc32)cc1` [example 4, (5S)-{[2-(4-Carboxyphenyl)ethyl][2-(2-{[3-chloro-4′-(trifluoromethyl)biphenyl-4-yl]methoxy}phenyl)-ethyl]amino}-5,6,7,8-tetrahydroquinoline-2-carboxylic acid], the “storage stability of the form” value ([6]; listed as monohydrate I) was “stable”.
